20 molecules from patent publication US9321756B2, “Azole compounds as PIM inhibitors” (priority 2011, dated 2016) can be followed below.

Read-outs that look alike come from different tables or passages of the source. Some results are limits rather than exact numbers.

In experiment [1] the target is full length recombinant Pim-3 (Homo sapiens (Human), UniProt Q86V86). Kind of experiment: Pim enzyme assay (HTRF, phosphorylation of biotinylated-BAD (S112) peptide), Pim-3. It counts as biochemical. The note with it: read-out: Pim3 IC50. In a few lines: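 IC50 values were fitted with a 4-parameter logistic model to percent-of-control HTRF signal (Eu anti-phospho-BAD S112 antibody/streptavidin-APC). Reactions used full-length Pim-3 and biotin-BAD (S112) peptide, ran 1 h 30 min at RT (22 °C) in Hepes pH 7.0 buffer with BSA and DTT, and were stopped by 3 mM EDTA.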

Experiment [2] concerns the target full length recombinant Pim-2 (Homo sapiens (Human), UniProt Q9P1W9). Kind of experiment: Pim enzyme assay (HTRF, phosphorylation of biotinylated-BAD (S112) peptide), Pim-2. The experiment is classed as biochemical. The conditions noted are these: read-out: Pim2_IC50.
For experiment [3], the system named is Pim-2 stably transfected U2OS human osteogenic sarcoma line. Nature of the experiment: Pim cell assay U2OS (phospho-BAD normalized against total BAD), Pim-2 transfected. The conditions noted are these: Homo sapiens, read-out: U2OS Pim2_Cell_IC50. It counts as cell-based. How it is done:
(§1) The cell lines used in the assay were generated by the stable transfection of either Pim-1 or Pim-2 into the U2OS human osteogenic sarcoma line. The assay for determination of the Pim activity in the engineered U2OS cell lines measures levels of phospho-BAD normalized against total BAD protein levels. It was conducted as follows:
(§2) The adherent cells were dissociated from the flasks using non-enzymatic cell dissociation solution (Sigma #C5914). […] The cells were then incubated overnight at 37° C., 5% CO2.
(§3) In addition to the 10-point dosing curve of the test compound, DMSO alone was run as the high control.
(§4) This dilution in DMSO was then diluted again into cell growth medium. Aliquots (12 μL) of the compound diluted in growth medium were then transferred to the appropriate wells of the 96-well plates containing cells to a final DMSO concentration of 0.3%. The cell plates were then incubated with compound for 29 min at 37° C., 5% CO2.
(§5) The cell plates containing lysis buffer were then immediately stored at −70° C.
(§6) These prepared lysates were then assayed for phospho and total BAD according to the manufacturer's protocols (Meso Scale Diagnostics, Cat#K15103C-3 & #K15103D-3). The plates were read on the MSD Sector Imager 6000, and results were calculated according to the assay protocols ((% Phosphoprotein=((2×Phospho signal)/(Phospho signal+Total signal))×100)).

Experiment [4] concerns the target full length recombinant Pim-1 (Homo sapiens (Human), UniProt P11309). Nature of the experiment: Pim enzyme assay (HTRF, phosphorylation of biotinylated-BAD (S112) peptide), Pim-1. The experiment is classed as biochemical. The note with it: read-out: Pim_1_IC50. Background: In TR-FRET formats the signal depends on donor and acceptor labels being close together.
Experiment [5] relates to Pim-1 stably transfected U2OS human osteogenic sarcoma line. Kind of experiment: Pim cell assay U2OS (phospho-BAD normalized against total BAD), Pim-1 transfected. The experiment is classed as cell-based. The note with it: Homo sapiens. How it is done:
as §1, §2, §3, §4, §5, §6

Where [6] appears, read: U2OS, read-out: U2OS Pim1_Cell_IC50.
[7] abbreviates: U2OS, read-out: U2OS Pim1_Cell_IC50, U2OS cells, Pim-1 transfected.

Chain of full length recombinant Pim-1 (P11309 whole entry): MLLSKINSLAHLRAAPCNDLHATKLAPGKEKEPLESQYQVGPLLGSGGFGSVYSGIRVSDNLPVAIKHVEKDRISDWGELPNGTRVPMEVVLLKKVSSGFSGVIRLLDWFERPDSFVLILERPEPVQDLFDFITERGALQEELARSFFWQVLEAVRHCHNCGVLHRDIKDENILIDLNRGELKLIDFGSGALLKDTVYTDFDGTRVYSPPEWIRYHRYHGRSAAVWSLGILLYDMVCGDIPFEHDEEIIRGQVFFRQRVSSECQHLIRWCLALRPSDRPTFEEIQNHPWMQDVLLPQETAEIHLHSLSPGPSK
Chain of full length recombinant Pim-2 (Q9P1W9 whole entry): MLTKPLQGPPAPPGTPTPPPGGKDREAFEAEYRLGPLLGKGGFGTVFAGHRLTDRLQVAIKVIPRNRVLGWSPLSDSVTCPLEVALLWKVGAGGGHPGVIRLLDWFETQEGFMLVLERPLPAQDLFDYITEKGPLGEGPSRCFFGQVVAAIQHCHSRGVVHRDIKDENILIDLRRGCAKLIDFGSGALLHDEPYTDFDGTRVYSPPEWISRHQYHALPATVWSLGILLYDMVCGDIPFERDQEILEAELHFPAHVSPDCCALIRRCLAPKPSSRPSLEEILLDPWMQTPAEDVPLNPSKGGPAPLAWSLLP

Consider `Nc1nnc(-c2ccc3[nH]cc(-c4nccc(N5CCC[C@@H](O)C5)n4)c3c2)o1` (stereo in doubt) [Example 104, 1-(2-(5-(5-amino-1,3,4-oxadiazol-2-yl)-1H-indol-3-yl)-4-pyrimidinyl)-3-piperidinol], for which the IC50 came to 0.0051 µM in experiment [1] (Pim-3 enzyme assay); 0.00773 µM in experiment [2] (Pim-2 enzyme assay); 15.2 µM in experiment [3] (U2OS cells, Pim-2 transfected); 0.0114 µM in experiment [4] (Pim-1 enzyme assay); 2.13 µM in experiment [5] (setting [6]).
Taken in the same sequence, the figures for `C[C@H]1CCCN(c2ccnc(-c3c[nH]c4ccc(-c5nnc(N)o5)cc34)n2)C1` (stereo in doubt) [Example 105, 5-(3-(4-(3-methyl-1-piperidinyl)-2-pyrimidinyl)-1H-indol-5-yl)-1,3,4-oxadiazol-2-amine] were 0.00178 µM, 0.00481 µM, 0.92 µM, 0.0055 µM and 0.104 µM.
On to `CN(C)[C@H]1CCCN(c2ccnc(-c3c[nH]c4ccc(-c5nnc(N)o5)cc34)n2)C1` (stereo in doubt) [Example 107, 1-(2-(5-(5-amino-1,3,4-oxadiazol-2-yl)-1H-indol-3-yl)-4-pyrimidinyl)-N,N-dimethyl-3-piperidinamine], for which the IC50 in experiment [1] (Pim-3 enzyme assay) was 0.00374 µM; in experiment [2] (Pim-2 enzyme assay) it was 0.00324 µM; in experiment [3] (U2OS cells, Pim-2 transfected), more than 31.6 µM; in experiment [4] (Pim-1 enzyme assay), 0.00598 µM; in experiment [5] (setting [6]) it was 3.86 µM.
On the same counts, the results for `C[C@H]1CCCCN1c1cccc(-c2c[nH]c3ccc(-c4nnc(N)s4)cc23)n1` (stereo in doubt) [Example 167, 5-(3-(6-(2-methyl-1-piperidinyl)-2-pyridinyl)-1H-indol-5-yl)-1,3,4-thiadiazol-2-amine] are 0.00587 µM, 0.0644 µM, 25 µM, 0.019 µM and 0.421 µM.
Turning to `CC1CCCCN1c1cncc(-c2c[nH]c3ccc(-c4nnc(N)o4)cc23)n1` (stereo not shown) [Example 1, 5-(3-(6-(2-methylpiperidin-1-yl)pyrazin-2-yl)-1H-indol-5-yl)-1,3,4-oxadiazol-2-amine], the IC50 in experiment [1] (Pim-3 enzyme assay) came out at 0.00106 µM; in experiment [2] (Pim-2 enzyme assay), 0.00206 µM; in experiment [3] (U2OS cells, Pim-2 transfected) it was 0.435 µM; in experiment [4] (Pim-1 enzyme assay) it was 0.000714 µM; in experiment [5] (setting [7]), 0.0119 µM.
On to `CC1CCCCN1c1ccnc(-c2c[nH]c3ccc(-c4nnc(N)o4)cc23)n1` (stereo not shown) [Example 3, 5-(3-(4-(2-methylpiperidin-1-yl)pyrimidin-2-yl)-1H-indol-5-yl)-1,3,4-oxadiazol-2-amine], for which the IC50 in experiment [1] (Pim-3 enzyme assay) was determined as 0.000974 µM; in experiment [2] (Pim-2 enzyme assay) it was 0.00219 µM; in experiment [3] (U2OS cells, Pim-2 transfected), 0.235 µM; in experiment [4] (Pim-1 enzyme assay) it was 0.00595 µM; in experiment [5] (setting [6]) it was 0.0546 µM.
With `Nc1nnc(-c2ccc3[nH]cc(-c4cncc(NC5CCCC5)n4)c3c2)o1` [Example 4, 5-(3-(6-(cyclopentylamino)pyrazin-2-yl)-1H-indol-5-yl)-1,3,4-oxadiazol-2-amine], the IC50 in experiment [1] (Pim-3 enzyme assay) was found to be 0.000586 µM; in experiment [2] (Pim-2 enzyme assay), 0.002 µM; in experiment [3] (U2OS cells, Pim-2 transfected), 0.342 µM; in experiment [4] (Pim-1 enzyme assay) it was 0.00101 µM; in experiment [5] (setting [6]) it was 0.027 µM.
As for `Nc1nnc(-c2ccc3[nH]cc(-c4cccc(N5CCOCC5)n4)c3c2)o1` [Example 6, 5-(3-(6-morpholinopyridin-2-yl)-1H-indol-5-yl)-1,3,4-oxadiazol-2-amine], the IC50 in experiment [1] (Pim-3 enzyme assay) was 0.00574 µM; in experiment [2] (Pim-2 enzyme assay) it was 0.0208 µM; in experiment [3] (U2OS cells, Pim-2 transfected) it was 2.11 µM; in experiment [4] (Pim-1 enzyme assay), 0.00591 µM; in experiment [5] (setting [7]), 0.0619 µM.
Turning to `Nc1nnc(-c2ccc3[nH]cc(-c4nccc(N5CCOCC5)n4)c3c2)s1` [Example 11, 5-(3-(4-morpholinopyrimidin-2-yl)-1H-indol-5-yl)-1,3,4-thiadiazol-2-amine], the IC50 in experiment [1] (Pim-3 enzyme assay) was determined as 0.00769 µM; in experiment [2] (Pim-2 enzyme assay) it was 0.00861 µM; in experiment [3] (U2OS cells, Pim-2 transfected) it was 2.2 µM; in experiment [4] (Pim-1 enzyme assay) it was 0.0197 µM; in experiment [5] (setting [6]) it was 0.911 µM.
As for `CN1CCN(c2cccc(-c3c[nH]c4ccc(-c5nnc(N)s5)cc34)n2)CC1` [Example 13, 5-(3-(6-(4-methylpiperazin-1-yl)pyridin-2-yl)-1H-indol-5-yl)-1,3,4-thiadiazol-2-amine], the IC50 in experiment [1] came to 0.000625 µM; in experiment [2], 0.0109 µM; in experiment [3] (U2OS), 3.01 µM; in experiment [4] it was 0.00202 µM; in experiment [5] (setting [7]), 0.198 µM.
With `Nc1nnc(-c2ccc3[nH]cc(-c4cncc(NC5CCCC5)n4)c3c2)s1` [Example 17, 5-(3-(6-(cyclopentylamino)pyrazin-2-yl)-1H-indol-5-yl)-1,3,4-thiadiazol-2-amine 2,2,2-trifluoroacetate], the IC50 in experiment [1] is 0.000763 µM; in experiment [2] it was 0.00592 µM; in experiment [3] (U2OS) it was 1.22 µM; in experiment [4], 0.0015 µM; in experiment [5] (setting [6]) it was 0.0566 µM.
`CN1CCN(c2cncc(-c3c[nH]c4ccc(-c5nnc(N)s5)cc34)n2)CC1=O` [Example 18, 4-(6-(5-(5-amino-1,3,4-thiadiazol-2-yl)-1H-indol-3-yl)pyrazin-2-yl)-1-methylpiperazin-2-one]: the IC50 in experiment [1] (Pim-3 enzyme assay) was 0.00741 µM; in experiment [2] (Pim-2 enzyme assay), 0.0892 µM; in experiment [3] (U2OS cells, Pim-2 transfected), more than 31.6 µM; in experiment [4] (Pim-1 enzyme assay) it was 0.0158 µM; in experiment [5] (setting [6]), more than 31.6 µM.
As for `CCOc1cncc(-c2c[nH]c3ccc(-c4nnc(N)s4)cc23)n1` [Example 19, 5-(3-(6-ethoxypyrazin-2-yl)-1H-indol-5-yl)-1,3,4-thiadiazol-2-amine], the IC50 in experiment [1] (Pim-3 enzyme assay) amounted to 0.0078 µM; in experiment [2] (Pim-2 enzyme assay) it was 0.0278 µM; in experiment [3] (U2OS cells, Pim-2 transfected) it was 2.75 µM; in experiment [4] (Pim-1 enzyme assay), 0.0197 µM; in experiment [5] (setting [7]) it was 0.205 µM.
With `Nc1nnc(-c2ccc3[nH]cc(-c4cccc(N5CCOCC5)n4)c3c2)s1` [Example 24, 5-(3-(6-morpholinopyridin-2-yl)-1H-indol-5-yl)-1,3,4-thiadiazol-2-amine], the IC50 was 0.00559 µM in experiment [1] (Pim-3 enzyme assay); 0.0587 µM in experiment [2] (Pim-2 enzyme assay); 7.57 µM in experiment [3] (U2OS cells, Pim-2 transfected); 0.232 µM in experiment [5] (setting [7]).
On to `c1cc(-c2c[nH]c3ccc(-c4nncs4)cc23)nc(N2CCOCC2)c1` [Example 28, 4-(6-(5-(1,3,4-thiadiazol-2-yl)-1H-indol-3-yl)pyridin-2-yl)morpholine], for which the IC50 in experiment [1] (Pim-3 enzyme assay) was 0.027 µM; in experiment [2] (Pim-2 enzyme assay) it was 0.157 µM; in experiment [3] (U2OS cells, Pim-2 transfected), more than 31.6 µM; in experiment [4] (Pim-1 enzyme assay) it was 0.0407 µM; in experiment [5] (setting [6]), 1.07 µM.
Take `Nc1nnc(-c2ccc3[nH]cc(-c4nccc(-c5ccccc5F)n4)c3c2)o1` [Example 123, 5-(3-(4-(2-fluorophenyl)-2-pyrimidinyl)-1H-indol-5-yl)-1,3,4-oxadiazol-2-amine]: the IC50 in experiment [1] (Pim-3 enzyme assay) was found to be 0.00497 µM; in experiment [3] (U2OS cells, Pim-2 transfected) it was 1.35 µM; in experiment [4] (Pim-1 enzyme assay) it was 0.0106 µM; in experiment [5] (setting [7]), 0.147 µM.
On the same counts, the results for `Nc1nnc(-c2ccc3[nH]cc(-c4cccc(OC5CCC5)n4)c3c2)s1` [Example 161, 5-(3-(6-(cyclobutyloxy)-2-pyridinyl)-1H-indol-5-yl)-1,3,4-thiadiazol-2-amine] are 0.00298 µM, 3.48 µM, 0.0109 µM and 0.205 µM.
On to `Nc1nnc(-c2ccc3[nH]cc(-c4cccc(OC5CCCC5)n4)c3c2)s1` [Example 163, 5-(3-(6-(cyclopentyloxy)-2-pyridinyl)-1H-indol-5-yl)-1,3,4-thiadiazol-2-amine], for which the IC50 in experiment [1] (Pim-3 enzyme assay) is 0.00458 µM; in experiment [3] (U2OS cells, Pim-2 transfected), 6.9 µM; in experiment [4] (Pim-1 enzyme assay) it was 0.0147 µM; in experiment [5] (U2OS cells, Pim-1 transfected, read-out: U2OS Pim1_Cell_IC50) it was 0.479 µM.
In the case of `CNc1nnc(-c2ccc3[nH]cc(-c4csc(-n5cnc(C)c5)n4)c3c2)s1` [Example 233, N-methyl-5-(3-(2-(4-methyl-1H-imidazol-1-yl)-1,3-thiazol-4-yl)-1H-indol-5-yl)-1,3,4-thiadiazol-2-amine], the IC50 in experiment [1] (Pim-3 enzyme assay) was 0.028 µM; in experiment [3] (U2OS cells, Pim-2 transfected) it was more than 31.6 µM; in experiment [4] (Pim-1 enzyme assay), 0.1 µM; in experiment [5] (setting [7]) it was 1.4 µM.
On to `c1cc(C2CC2)nc(-c2c[nH]c3ccc(-c4nnc(NC5COC5)o4)cc23)n1` [Example 256, 5-(3-(4-cyclopropyl-2-pyrimidinyl)-1H-indol-5-yl)-N-3-oxetanyl-1,3,4-oxadiazol-2-amine], for which the IC50 in experiment [1] (Pim-3 enzyme assay) came out at 0.00121 µM; in experiment [3] (U2OS cells, Pim-2 transfected), 0.734 µM; in experiment [4] (Pim-1 enzyme assay), 0.00769 µM; in experiment [5] (setting [7]), 0.0681 µM.
